Experimental data: patent US20210244791A1, “APPLICATION OF PEDF-DERIVED SHORT PEPTIDES IN TENDON HEALING” (BRIM Biotechnology, Inc., priority 2018, published 2021)

Key:
[1] = test system: cultured tendon stem/progenitor cells (TSPC); settings: peptide added in culture medium; previous study; cited from earlier work
[2] = test system: tendon rupture; settings: rat model; previous study; cited from earlier work
[3] = test system: Primary rabbit TSPC; assay: TSPC cell proliferation assay (fluorometric kit); assay type: cell-based; settings: 10 μM peptide, low serum media, PDSP solvent (DMSO) set as 100%, mean±SE of three experiments
Method: Primary rabbit TSPC were cultured to near-confluence in a 75T cell culture flask and then verified by immunostaining of a TSPC marker, nucleostemin (>98%; green color). Nuclei were stained with Hoechst 33258 (blue color) and visualized by an epifluorescence microscopy. The nucleostemine-positive TSPC were treated with 10 μM 29-mer or its variants for 24 h. The numbers of TSPC after 24-h expansion were detected with a cell proliferation assay kit (BioVision; catalog number: K307). The TSPC treated with PDSP solvent was set as 100%. Results are expressed as mean±SE of three independent experiments.
(§1) Achilles tendons from New Zealand White rabbits (6-8 months old, 3.0-4.0 kg) were used in this study. Achilles tendons were washed two times with sterile phosphate-buffered saline (PBS) containing 50 μg/ml gentamicin. The tendon and tendon sheath were cut into small pieces (1-2 mm^3). Each 100 mg of fragment was then digested in a solution containing 3 mg/ml of type I collagenase and 4 mg/ml of dispase in 1 ml balance salt solution (BSS; Alcone) at 37° C. for 4 hours. The digested tissues were washed three times with PBS and collected by centrifugation (800 g for 10 min). The digested tissues were placed in tissue-culture plates (Falcon Labware; NJ, USA) and resuspended in high-glucose DMEM supplemented with 10% FBS and 50 μg/ml gentamycin, and maintained at 37° C. with 5% CO2. After 5 days, the medium was changed to remove the loosened tissue residues. Subsequently, tendon cells were incubated with 10% FBS medium for 2 days, and then cultured with a basal medium (2% FBS, 1% ITSE, 300 μg/ml L-glutamine, 1% antibiotic-antimicotic solutions) for further 10 days. Culture medium was changed every 3 days. For passage, tendon cells were harvested with 0.25% trypsin/EDTA, cell counting by haemocytometer, approximately 5×10^3 cells were seeded in each well of a 96-well cell culture plate or 2×10^5 cells were seeded in each well of a 6-well cell culture plate for 24 h. These expanded tendon cells were then treated with 10 μM 29-mer or its variants in fresh basal medium for further 24 h and subjected to cell proliferation assay and western blot analysis, respectively.
Cell Proliferation Assay Kit (Fluorometric) was purchased from BioVision (Catalog #: K307) and used to evaluate cell proliferation according to the manufacturer's recommendations. The fluorescence was read at 480 nm for excitation and 538 nm for emission on a SPECTRAmax GEMINI XS fluorescence microplate spectrophotometer (Molecular Devices, Sunnyvale, Calif., USA).
Rabbit TSPC isolation was described above. TSPC in low serum media were treated with 10 μM of one of the 29-mer variants for 24 h. Cell proliferation was examined by a cell proliferation kit based on a kit provided nuclear dye that specifically binds to nucleic acid in the cell and generates green fluorescence.

[4] = test system: cyclin D1; assay: Western blot analysis of cyclin D1 expression in TSPC; assay type: cell-based, rabbit; settings: TSPC treated 24 h; compared with solvent-treated cells; normalized to β-actin
Method: Primary rabbit TSPC were treated with 10NM 29-mer or its variants for 24 h. Representative blots (A) and densitometric analysis with the SD (B) from three independent experiments are shown. Cyclin D1 expression was normalized to ([…]. *P<0.01 vs. solvent-treated cells. ^#P<0.05 vs. 29-mer-treated cells.
as §1
Cell lysis, SDS-PAGE, and antibodies used for immunoblotting were performed as described (Ho et al., 15-deoxy-Delta(12,14)-prostaglandin J2 induces vascular endothelial cell apoptosis through the sequential activation of MAPKS and p53. J Biol. Chem., 2008; 283(44): 30273-30288). The band intensity in immunoblot was evaluated with a Model GS-700 imaging densitometer (Bio-Rad Laboratories, Hercules, Calif.) and analyzed using Labworks 4.0 software.
However, the 29-mer effect on cyclin D1 protein induction was almost abolished by alanine/glycine replacement at residue S93, A96, Q98, 1103, 1104 and R106, respectively (1.3±0.1, 1.5±0.3, 1.3±0.1, 0.9±0.1, 1.3±0.2, and 1.0±0.3). […] The data also imply that the PDSP at positions Ser93, Ala96, Gln98, Ile103, Ile104, and Arg106 are important for sustaining the PDSP effect on induction of TSPC proliferation.

[5] = test system: injured Achilles tendon; assay: Rat model of Achilles tendon injury, histology (H&E) and histopathological score; assay type: in vivo; settings: 1 week postoperative; for histological appearance of treated tendon (H&E staining): subcutaneous 150 μl alginate gel with 100 μM peptide
Source text: Representative micrographs of the histopathological analysis by H&E staining. H&E-stained sections in higher magnification show uninjured tendon tissue with a relative scarcity of cells among the collagen fibers.
(A) Representative H&E-stained longitudinal sections in higher magnification show the nuclei morphologies in uninjured tendon tissue and injured tendon treated with vehicle/alginate and 29-mer/alginate for 1 week. (B) Histopathological scores. Total scores were determining by fiber structure, fiber arrangement, rounding of the nuclei, resident cell density and inflammation (infiltration of inflammatory cells, neovascularization and fatty deposits). Data are reported as mean±SE. *P<0.0005 versus vehicle/alginate-treated tendon; ^#P<0.05 versus 29-mer/alginate-treated tendon.
(§2) To investigate the effects of the 29-mer peptide on tendon healing, a rat model of Achilles tendon injury was established as reported by Orhan et al. (The effect of extracorporeal shock waves on a rat model of injury to tendon Achilles. A histological and biomechanical study. J. Bone Joint Surg. Br. 2004;.86(4):.613-618). Adult 10-week-old male Sprague-Dawley rats (initial body weight=312±11 g) were anesthetized by an intraperitoneal injection of xylazine (10 mg/kg). Then, the left tendo Achilles injury was created by full-thickness insertion of an 18-G needle through tendo Achilles 1 cm proximal to the calcaneum attachment site. This created a horizontal wound that was flanked by intact tendon tissue to prevent the retraction of severed ends. The skin incision was closed after the wound was irrigated with sterile saline. Treatments were applied to area around the tendon lesion by subcutaneous injection with 150 μl of alginate gel mixed with 100 μM 29-mer or DMSO vehicle (six rats per experimental condition).
The tendon and surrounding soft tissue were dissected. Specimens were fixed in a 4% paraformaldehyde (PFA) solution and then were embedded in paraffin blocks. Sections (5 μm in thickness) were longitudinally cut and stained with hematoxylin and eosin (H&E) or used for immunohistochemical examination. 36 sections per tendon were carefully prepared so as to include the most severely degenerated area. Images were captured using a Nikon Eclipse 80i microscope (Nikon Corporation, Tokyo, Japan) equipped with a Leica DC 500 camera (Leica Microsystems, Wetzlar, Germany). Four sections of each sample containing injured tendon tissues were selected and evaluated by two blinded observers to assess the tendon morphology according to a modified semi-quantitative grading score from 0 to 3 proposed by Chen et al. (Tendon derived stem cells promote platelet-rich plasma healing in collagenase-induced rat Achilles tendinopathy. Cell Physiol. Biochem., 2014; 34(6): 2153-68). The scores analyzed the fiber structure (0-3), fiber arrangement (0-3), rounding of the nuclei (0-3), resident cell density (0-3), and inflammation (0-3; infiltration of inflammatory cells, neovascularization and fatty deposits). According to this grading system, a perfectly normal tendon obtained a score of 0, whereas a score of 15 was assigned to maximally abnormal tendons.
To investigate the therapeutic effect of the 29-mer peptide on injured tendon, a rat model of Achilles tendon injury was established by full-thickness insertion of an 18-G needle through the tendon Achilles. We delivered the 29-mer in a 150 μl alginate gel, which releases 90% loaded 29-mer in 5 days as described in a previous protocol (Ho et al., PEDF-derived peptide promotes skeletal muscle regeneration through its mitogenic effect on muscle progenitor cells. Am J Physiol. Cell Physiol. 2015 Aug. 1; 309(3): C159-68).

[6] = test system: CD146-positive TSPC; assay: CD146 immunostaining of TSPC in injured Achilles tendon; assay type: in vivo, rat; settings: 1 week after wounding; peptide/alginate gel; vehicle/alginate 38.3±7.8
Method: (A) Representative CD146-stained longitudinal sections. (Original magnification×200). (B) The number of CD146-positive TSPC per 200×field of view on injured tendon sections. Data are reported as mean±SE. Total CD146^+ cells were evaluated from 6 sections/tendon specimen, with 3 rats in each group. *P<0.001 versus vehicle/alginate-treated tendon; #p <0.001 versus 29-mer/alginate-treated tendon.
as §2, with “The skin incision was closed after the wound was irrigated with sterile saline. Treatments were applied to area around the tendon lesion by subcutaneous injection with 150 μl of alginate gel mixed with 100 μM 29-mer or DMSO vehicle (six rats per experimental condition).” left out
CD146 is one of the TSPC markers. […] To test the mechanism of the 29-mer-induced tendon repair, CD146 immunostaining of TSPC located at injured tendon was measured, at 1 week after wounding. […]

For “20-mer: PEDF-derived short peptide, Ser93-Leu112 (SLGAEQRTESIIHRALYYDL; UniProt P36955 93-112, looked up, fragment)”, the “induction of cultured TSPC proliferation” value [1] is given as “able to induce cultured tendon stem/progenitor cells (TSPC) proliferation” and the “healing of tendon rupture” value [2] is given as “facilitated healing of tendon rupture”.

For “24-mer: PEDF-derived short peptide, Ser93-Pro (SLGAEQRTESIIHRALYYDLISSP; UniProt P36955 93-116, looked up, fragment)”, the “induction of cultured TSPC proliferation” value [1] is listed as “able to induce cultured tendon stem/progenitor cells (TSPC) proliferation” and the “healing of tendon rupture” value [2] is listed as “facilitated healing of tendon rupture”.

In the case of “1103A: 29-mer variant with single alanine replacement at isoleucine-103 (SLGAEQRTESAIHRALYYDLISSPDIHGT; UniProt P36955 93-121, looked up, variant I103A)”, the “TSPC proliferation (numbers of TSPC after 24-h expansion)” value [3] is reported as 106±5.3%, the “induction of the cyclin D1 protein” value [4] is reported as 0.9±0.1 fold and the “histological appearance of treated tendon (H&E staining)” value (“histological appearance” below) [5] is reported as “loss of fiber organization and accompanied a marked increase in inflammatory matrix, fatty deposits, and vascularity”.

With “1104A: 29-mer variant with single alanine replacement at isoleucine-104 (SLGAEQRTESIAHRALYYDLISSPDIHGT; UniProt P36955 93-121, looked up, variant I104A)” the “TSPC proliferation (numbers of TSPC after 24-h expansion)” value [3] was 112±1.7%, the “induction of the cyclin D1 protein” value [4] was 1.3±0.2 fold and the “histological appearance” value [5] was “loss of fiber organization and accompanied a marked increase in inflammatory matrix, fatty deposits, and vascularity”.

In the case of “A96G: 29-mer variant with single glycine alteration at alanine-96 (SLGGEQRTESIIHRALYYDLISSPDIHGT; UniProt P36955 93-121, looked up, variant A96G)”, the “TSPC proliferation (numbers of TSPC after 24-h expansion)” value [3] is reported as 102±4.0%, the “induction of the cyclin D1 protein” value [4] is reported as 1.5±0.3 fold and the “histological appearance” value [5] is reported as “loss of fiber organization and accompanied a marked increase in inflammatory matrix, fatty deposits, and vascularity”.

In the case of “H105A: 29-mer variant with single alanine alteration at residue 105 (SLGAEQRTESIIARALYYDLISSPDIHGT; UniProt P36955 93-121, looked up, variant H105A)”, the “induction of the cyclin D1 protein” value [4] is reported as 2.7±0.3 fold, the total histopathological score ([5]; peptide/alginate gel, 0 = normal tendon, 15 = maximally abnormal, vehicle/alginate 12.7±0.6) is reported as 7.8±0.7 and the “histological appearance” value [5] is reported as “uniform appearance of well-aligned collagen fibers and no degenerative events similar to the 29-mer treatment”. The “number of CD146-positive TSPC on injured tendon sections” value [6] was 88.5±7.8 cells per 200× field.

For “Q98A: 29-mer variant with single alanine replacement at glutamine-98 (SLGAEARTESIIHRALYYDLISSPDIHGT; UniProt P36955 93-121, looked up, variant Q98A)”, the “TSPC proliferation (numbers of TSPC after 24-h expansion)” value [3] was 106±5.4%, the “induction of the cyclin D1 protein” value [4] was 1.3±0.1 fold and the “histological appearance” value [5] was “loss of fiber organization and accompanied a marked increase in inflammatory matrix, fatty deposits, and vascularity”.

For “R106A: 29-mer variant with single alanine replacement at arginine-106 (SLGAEQRTESIIHAALYYDLISSPDIHGT; UniProt P36955 93-121, looked up, variant R106A)”, the “TSPC proliferation (numbers of TSPC after 24-h expansion)” value [3] was 106±3.5%, the “induction of the cyclin D1 protein” value [4] was 1.0±0.3 fold and the “histological appearance” value [5] was “loss of fiber organization and accompanied a marked increase in inflammatory matrix, fatty deposits, and vascularity”.
